Laboratory results taken from patent US5914336A, “Method of controlling the serum solubility of orally administered torasemide and composition relating thereto” (Boehringer Mannheim GmbH, priority 1998, dated 1999).
Converted amounts (≈) assume the structure as drawn. “And” between values parts separate entries of the source, which are not always exact repeats. Equal values may be shown once. “Also recorded” adds a separate entry of the source. Read-outs that look alike come from different tables or passages of the source.

Columns and labels:
[1] = tested on: sodium-potassium-2 chloride transport mechanism in the ascending limb of the loop of Henle; details: loop diuretic; cited from earlier work
[2] = in vivo; cited from earlier work
[3] = earlier patents/knowledge, storage of pure active material or in tablets, cited from earlier work
[4] = Heats of fusion, transition and solution of crystal forms; type: physicochemical; details: for Heat of fusion ± 95%-c.i.: heating rate 5K min^-1; for Heat of solution: in I-butanol at 20° C.
[5] = Dissolution testing of capsules containing 150 mg torasemide in water; type: physicochemical; details: for % dissolved: 500 ml, 37° C., 150 rpm, 150 mg capsule
Procedure: FIG. 4 is a plot similar to that of FIG. 3, but in water rather than citrate buffer; FIG. 6 is a plot similar to that of FIG. 5, but in water. In this and the following examples, microfine torasemide of modification I and microfine torasemide of modification III were blended together. A blend was prepared of 75 wt. % of modification III and 25 wt. % of modification I, and a similar blend was prepared of 25 wt. % of modification III and 75 wt. % of modification I. These blends were incorporated into capsules containing 150 mg of total torasemide, and pure modification I and pure modification III 150 mg. capsules were also prepared. The capsules were subjected to dissolution testing in water, and in a citrate buffer (pH 4.5), at 37° C. under stirring.

[6] = Solubility at 20° C. at pH 4.90; type: physicochemical
Procedure: Solubility (mmol L^-1) at 20° C. at pH 4.90

[7] = Dissolution testing of capsules containing 150 mg torasemide in citrate buffer (pH 4.5); type: physicochemical; details: for % dissolved: citrate buffer pH 4.5, 500 ml, 37° C., 150 rpm, 150 mg capsule; for 8 hr solubility, %: citrate, pH 4.5, 8 hr
Procedure: A blend was prepared of 75 wt. % of modification III and 25 wt. % of modification I, and a similar blend was prepared of 25 wt. % of modification III and 75 wt. % of modification I. These blends were incorporated into capsules containing 150 mg of total torasemide, and pure modification I and pure modification III 150 mg. capsules were also prepared. The capsules were subjected to dissolution testing in water, and in a citrate buffer (pH 4.5), at 37° C. under stirring.

[8] = Water content after storing in relative humidity of 92% at 25° C.; type: physicochemical; details: 92% relative humidity, Mod. III value depending on particle size
Procedure: |Water content (%) after storing in relative humidity |of 92% at 25° C. on particle size

[9] = Serum concentration of torasemide after oral administration to rats; type: in vivo, rat; details: male rats (FIG. 1)
Text: FIG. 1 is a plot of serum concentration levels in male rats of torasemide of modification I and modification III versus time after oral administration;
FIG. 2 is similar to FIG. 1, but reflects the serum concentrations in female rats;

[10] = Solubility of modification III versus modification I above pH 3; type: physicochemical; details: above pH 3 and especially at a pH of approximately 7.4
[11] = Stability / rearrangement of crystal modification; type: physicochemical

| SMILES | Heat of fusion ± 95%-c.i. [4] | Heat of solution [4] | % dissolved ([5]; 0 minutes) | % dissolved ([5]; 15 minutes) | % dissolved ([5]; 30 minutes) | % dissolved ([5]; 45 minutes) | % dissolved ([5]; 60 minutes) | % dissolved ([5]; 120 minutes) | % dissolved ([5]; 180 minutes) | % dissolved ([5]; 240 minutes) | % dissolved ([5]; 300 minutes) | % dissolved ([5]; 480 minutes) | Solubility [6] | % dissolved ([7]; 0 minutes) | % dissolved ([7]; 15 minutes) | % dissolved ([7]; 30 minutes) | % dissolved ([7]; 45 minutes) | % dissolved ([7]; 60 minutes) | % dissolved ([7]; 120 minutes) | % dissolved ([7]; 180 minutes) | further results |
| --- | --- | --- | --- | --- | --- | --- | --- | --- | --- | --- | --- | --- | --- | --- | --- | --- | --- | --- | --- | --- | --- |
| Cc1cccc(Nc2ccncc2S(=O)(=O)NC(=O)NC(C)C)c1 [Torasemide, 1-isopropyl-3-[(4-m-toluidino-3pyridyl)-sulphonyl)-urea] | – | – | – | – | – | – | – | – | – | – | – | – | – | – | – | – | – | – | – | – | mechanism of action [1]: blocks the sodium-potassium-2 chloride transport mechanism in the ascending limb of the loop of Henle; diuresis compared with other standard loop diuretics [2]: less intense initial diuresis and a sustained duration of action |
| Cc1cccc(Nc2ccncc2S(=O)(=O)NC(=O)NC(C)C)c1 [Modification II, 1-isopropyl-3-[(4-m-toluidino-3pyridyl)-sulphonyl)-urea] | – | – | – | – | – | – | – | – | – | – | – | – | – | – | – | – | – | – | – | – | stability / rearrangement of modification [3]: relatively unstable; also recorded: in the case of storage of the pure active material, does not change; also recorded: rearranges more or less quickly into modification I |
| Cc1cccc(Nc2ccncc2S(=O)(=O)NC(=O)NC(C)C)c1 [Mod. I, 1-isopropyl-3-[(4-m-toluidino-3pyridyl)-sulphonyl)-urea] | 8.89 ± 0.454 kcal/mol | 8.63 kcal/mol | 0% | 30,6% | 51,3% | 58,5% | 61,6% | 64,9% | 65,9% | 66,3% | 66,8% | 67,3% | 340 µM (≈ 118 µg/mL) | 0% | 13,4% | 30,3% | 38,3% | 43,5% | 54,9% | 61% | 8 hr solubility, % ([5]; listed as Modification I): 67.3%; stability / rearrangement of modification ([3]; listed as modification I): stable in tablets and did not rearrange again back into modification II; % dissolved ([7]; 240 minutes): 63,2%; % dissolved ([7]; 300 minutes): 63,1%; % dissolved ([7]; 480 minutes): 63,9%; 8 hr solubility, % ([7]; listed as Modification I): 63.9%; Water content after storing in relative humidity of 92% at 25° C. [8]: 0.2% |
| Cc1cccc(Nc2ccncc2S(=O)(=O)NC(=O)NC(C)C)c1 [Mod. III, 1-isopropyl-3-[(4-m-toluidino-3pyridyl)-sulphonyl)-urea] | 7.15 ± 0.22 kcal/mol | 7.12 kcal/mol | 0% | 62,8% | 96,6% | 100,4% | 101,3% | 102,1% | 102,5% | 102,8% | 102,2% and 103,2% | 103,3% | 930 µM (≈ 324 µg/mL) | 0% | 63,3% | 91% | 97,4% | 99,5% | 101% | 101,5% | Heat of transition ± 95%-c.i. ([4]; at about 159° C., the difference of the heats of fusion): -1.96 ± 0.502 kcal/mol; 8 hr solubility, % ([5]; listed as Modification III): 103.3%; serum concentration relative to modification I ([9]; 20 minutes after oral administration): more than twice the serum concentration as modification I; serum concentration relative to modification I ([9]; 40 minutes after oral administration): almost twice the serum concentration as modification I; solubility versus modification I [10]: significantly greater solubility than modification I; stability of modification [11]: stable; % dissolved ([7]; 240 minutes): 101,6%; % dissolved ([7]; 300 minutes): 101,8%; % dissolved ([7]; 480 minutes): 102,5%; 8 hr solubility, % ([7]; listed as Modification III): 102.5%; Water content after storing in relative humidity of 92% at 25° C. [8]: 1.2% |
